Values belong to the molecule of their own block, whether it stands above or below them.
How the values were obtained:
MDA-MB-468 cells [1] = assay: Anti-proliferative effect on MDA-MB-468 cells, IC50 (MTT); format: cell-based
Procedure: The compounds of the present invention were tested at different concentrations (from 1000 nM to 1 nM) to assess their ability for inhibiting the proliferation of MDAMB-468 cells. Cells were cultivated in RPMI 1640 (Welgene)+10% FBS (Gibco)+1% penicillin/streptomycin (Gibco) and cultured at 37° C. in a humidified chamber in the presence of 5% C02.
MDA-MB-468 cells cultured in 96-well cell culture plates were treated with the compounds of the present invention and incubated for 72 hours.

[2] = target: recombinant purified human CDK7 kinase (Homo sapiens (Human), UniProt P50613); assay: CDK7 kinase-inhibitory activity, ADP-Glo kinase assay; format: biochemical; conditions: ATP 90 µM, MBP substrate, 2 hours at 30° C., read-out: CDK7 inhibition(IC50 nM)
Procedure: Representative compounds of the present invention were assayed in vitro for CDK7 kinase-inhibitory activities using ADP-Glo platform. In detail, CDK7 kinase-inhibitory activity was measured using recombinant purified human CDK7 kinase (ThermoFisher, PV3868) and ADP Glo kinase assays kit (Promega, V9102). CDK7 kinase was diluted with 1× kinase reaction buffer (40 mM Tris-C1, pH 7.5, 20 mM MgCl2, 0.1 mg/ml BSA and 50 [M DTT) and added to 96 well plates (final concentration of CDK7 per reaction: 50 ng). The compound was finally treated to be a 1% DMSO aqueous solution, and a substrate cocktail containing ATP (final concentration of 90 [M) and 0.2 μg/μl of MBP (Myelin basic protein) in a total of 25 μl of reaction mass was added to 96 well plates, thereby initiating an enzymatic reaction. After 2 hours of incubation (30° C.), equivalent volume (25 μl per reaction) of ADP Glo was added and incubated (30° C.) at room temperature for 60 minutes. The kinase detection reagent (50 μl per reaction) was then added and incubated (30° C.) at room temperature for 30 minutes. The kinase activity was measured by chemiluminescence method according to ADP Glo Kanease Assay Kit instruction manual, and the CDK7-inhibitory activity of the compounds according to the present invention was calculated. The result analysis of each compound was performed using Microsoft Excel, and IC50 values were calculated by Prism software.

HepG2 cells = assay: HepG2 cell viability assay (CCK-8); format: cell-based, human
Procedure: The ability to inhibit the proliferation of HepG2 cells, which are human hepatocellular carcinoma cells, was measured through the in vitro cell viability assay. Cells were cultured at 37° C. in a humidified condition in the presence of 5% CO2 using a culture medium of MEM (Welgene)+10% FBS (Gibco)+1% penicillin/streptomycin (Gibco). […] Cell viability was measured by CCK-8 method using tetrazolium salt, and the ability of the compounds according to the present invention to inhibit cancer cell proliferation was calculated.

MDA-MB-468 cells [3] = assay: Anti-proliferative effect on MDA-MB-468 cells, inhibition rate at 100 nM (tetrazolium salt method); format: cell-based; conditions: Homo sapiens, 72 hours
Procedure: Representative compounds of the present invention were tested at different concentrations (from 1000 nM to 25 nM) to assess their ability to inhibit the proliferation of MDA-MB-468 cells. Cells were grown in RPMI 1640 (Welgene)+10% FBS (Gibco)+1% penicillin/streptomycin (Gibco) and cultured at 37° C. in a humidified chamber in the presence of 5% CO2.
MDA-MB-468 cells cultured in 96-well cell culture plates were treated with representative compounds of the present invention and cultured for 72 hours.

CDK5 = CDK5 (Homo sapiens (Human), UniProt Q00535); assay: scanMAX Kinase Assay Panel, CDK5; format: binding; conditions: read-out: % inhibition at 1 uM CDK5, compound at 1 uM
Procedure: (§1) The assay (scanMAX Kinase Assay Panel) was performed. […] Kinase Assay Panel contains a set of 468 kinases including CDK2, CDK5. The compounds were screened at 1 [M, and results for binding interactions are reported compared to control (%).

CDK2 = CDK2 (Homo sapiens (Human), UniProt P24941); assay: scanMAX Kinase Assay Panel, CDK2; format: binding; conditions: read-out: % inhibition at 1 uM CDK2, compound at 1 uM
Procedure: as §1

CDK7 = CDK7 (Homo sapiens (Human), UniProt P50613); assay: scanMAX Kinase Assay Panel, CDK7; format: binding; conditions: read-out: % inhibition at 1 uM CDK7, compound at 1 uM
Procedure: as §1

Sequence of recombinant purified human CDK7 kinase (P50613 whole entry): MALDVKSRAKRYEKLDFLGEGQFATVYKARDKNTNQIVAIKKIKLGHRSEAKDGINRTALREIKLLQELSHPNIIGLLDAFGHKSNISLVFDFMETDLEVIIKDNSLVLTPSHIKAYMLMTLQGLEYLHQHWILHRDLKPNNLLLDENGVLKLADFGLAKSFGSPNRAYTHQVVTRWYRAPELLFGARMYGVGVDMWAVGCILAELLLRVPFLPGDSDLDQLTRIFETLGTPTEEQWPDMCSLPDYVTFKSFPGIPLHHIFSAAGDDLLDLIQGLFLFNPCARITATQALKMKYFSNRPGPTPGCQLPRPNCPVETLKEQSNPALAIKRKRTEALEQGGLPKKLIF
Sequence of recombinant purified human CDK7 kinase (P51946 whole entry partner): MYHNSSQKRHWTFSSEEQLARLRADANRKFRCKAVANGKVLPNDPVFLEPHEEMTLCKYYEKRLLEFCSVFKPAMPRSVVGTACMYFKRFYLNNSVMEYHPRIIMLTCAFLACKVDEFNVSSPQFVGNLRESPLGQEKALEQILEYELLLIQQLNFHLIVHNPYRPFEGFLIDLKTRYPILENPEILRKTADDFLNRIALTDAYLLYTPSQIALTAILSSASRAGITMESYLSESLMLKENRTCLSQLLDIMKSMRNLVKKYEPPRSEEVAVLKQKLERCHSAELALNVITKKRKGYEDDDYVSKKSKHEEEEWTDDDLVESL
Sequence of recombinant purified human CDK7 kinase (P51948 whole entry partner): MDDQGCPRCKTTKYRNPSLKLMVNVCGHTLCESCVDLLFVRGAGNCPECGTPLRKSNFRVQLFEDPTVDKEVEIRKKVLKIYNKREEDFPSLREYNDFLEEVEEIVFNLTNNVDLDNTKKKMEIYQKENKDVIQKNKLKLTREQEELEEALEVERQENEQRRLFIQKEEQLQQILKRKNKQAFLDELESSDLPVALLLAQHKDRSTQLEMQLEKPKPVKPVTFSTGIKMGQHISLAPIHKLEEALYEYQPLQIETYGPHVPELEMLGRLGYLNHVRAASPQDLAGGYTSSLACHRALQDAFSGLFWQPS
Sequence of CDK5 (Q00535 whole entry): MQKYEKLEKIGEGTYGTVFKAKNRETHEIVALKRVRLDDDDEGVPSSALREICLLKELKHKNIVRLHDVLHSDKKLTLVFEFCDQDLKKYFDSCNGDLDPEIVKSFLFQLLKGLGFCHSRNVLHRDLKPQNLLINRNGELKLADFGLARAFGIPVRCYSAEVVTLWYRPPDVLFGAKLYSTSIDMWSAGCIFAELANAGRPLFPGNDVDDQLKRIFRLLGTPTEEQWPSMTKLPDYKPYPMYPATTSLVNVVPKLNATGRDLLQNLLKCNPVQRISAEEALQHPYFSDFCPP
Sequence of CDK7 (P50613 whole entry): as the sequence (P50613 whole entry) above

Compound: C=CC(=O)Nc1cnc(-c2cccc([C@H](C)C(=O)Nc3ncc(C(F)(F)F)s3)c2)cn1 [Example 37, (S)-N-(5-(3-(1-oxo-1-((5-(trifluoromethyl)thiazol-2-yl)amino)propan-2-yl)phenyl)pyrazin-2-yl)acrylamide]
IC50 (MDA-MB-468 cells [1]; Homo sapiens, MDA-MB-468, 72 h): 40 nM
IC50 [2]: 17 nM
IC50 (HepG2 cells; Homo sapiens, HepG2, 72 h): 8 nM
inhibition at 0.1 µM (MDA-MB-468 cells [3]): 60%

Compound: C=CC(=O)Nc1cnc(-c2cncc(C(C)C(=O)Nc3ncc(C(F)(F)F)s3)c2)cn1 (stereo not shown) [Example 45, N-(5-(5-(1-oxo-1-((5-(trifluoromethyl)thiazol-2-yl)amino)propan-2-yl)pyridin-3-yl)pyrazin-2-yl)acrylamide]
IC50 (MDA-MB-468 cells [1]; Homo sapiens, MDA-MB-468, 72 h): 10 nM
IC50 [2]: 22 nM
IC50 (HepG2 cells; Homo sapiens, HepG2, 72 h): 8 nM
inhibition at 0.1 µM (MDA-MB-468 cells [3]): 59%

Compound: C=CC(=O)Nc1cnc(-c2cncc([C@H](C)C(=O)Nc3ncc(C(F)(F)F)s3)c2)cn1 [Example 52, (S)-N-(5-(5-(1-oxo-1-((5-(trifluoromethyl)thiazol-2-yl)amino)propan-2-yl)pyridin-3-yl)pyrazin-2-yl)acrylamide]
IC50 [2]: 19 nM
inhibition at 0.1 µM (MDA-MB-468 cells [3]): 72%

Compound: CC(C(=O)Nc1ncc(C(F)(F)F)s1)c1cncc(-c2cnc(NC(=O)/C=C/CN(C)C)cn2)c1 (stereo not shown) [Example 63, (E)-4-(dimethylamino)-N-(5-(5-(1-oxo-1-((5-(trifluoromethyl)thiazol-2-yl)amino)propan-2-yl)pyridin-3-yl)pyrazin-2-yl)but-2-enamide]
IC50 (MDA-MB-468 cells [1]; Homo sapiens, MDA-MB-468, 72 h): 20 nM
IC50 [2]: 17 nM
IC50 (HepG2 cells; Homo sapiens, HepG2, 72 h): 2 nM

Compound: CC(C(=O)Nc1ncc(Cl)s1)c1cncc(-c2cnc(NC(=O)/C=C/CN(C)C)cn2)c1 (stereo not shown) [Example 73, (E)-N-(5-(5-(1-((5-chlorothiazol-2-yl)amino)-1-oxopropan-2-yl)pyridin-3-yl)pyrazin-2-yl)-4-(dimethylamino)but-2-enamide]
IC50 (MDA-MB-468 cells [1]; Homo sapiens, MDA-MB-468, 72 h): 35 nM
IC50 [2]: 43 nM

Compound: C[C@H](C(=O)Nc1ncc(C(F)(F)F)s1)c1cccc(-c2cnc(NC(=O)/C=C/CN(C)C)cn2)c1 [Example 91, (S,E)-4-(dimethylamino)-N-(5-(3-(1-oxo-1-((5-(trifluoromethyl)thiazol-2-yl)amino)propan-2-yl)phenyl)pyrazin-2-yl)but-2-enamide]
IC50 (MDA-MB-468 cells [1]; 72 hours): 38 nM
IC50 [2]: 8 nM
IC50 (HepG2 cells; 72 hours): 9.5 nM

Compound: C[C@H](C(=O)Nc1ncc(C(F)(F)F)s1)c1cccc(-c2cnc(NC(=O)/C=C/CN3CCN(C)CC3)cn2)c1 [Example 95, (S,E)-4-(4-methylpiperazin-1-yl)-N-(5-(3-(1-oxo-1-((5-(trifluoromethyl)thiazol-2-yl)amino)propan-2-yl)phenyl)pyrazin-2-yl)but-2-enamide]
IC50 (MDA-MB-468 cells [1]; Homo sapiens, MDA-MB-468, 72 h): 57 nM
IC50 [2]: 80 nM

Compound: C[C@H](C(=O)Nc1ncc(C(F)(F)F)s1)c1cccc(-c2cnc(NC(=O)/C=C/CN(C)C)c(C#N)c2)c1 [Example 101, (S,E)-N-(3-cyano-5-(3-(1-oxo-1-((5-(trifluoromethyl)thiazol-2-yl)amino)propan-2-yl)phenyl)pyridin-2-yl)-4-(dimethylamino)but-2-enamide]
IC50 (MDA-MB-468 cells [1]; Homo sapiens, MDA-MB-468, 72 h): 30 nM
IC50 [2]: 7 nM
inhibition at 1 µM (CDK5): 22%
inhibition at 1 µM (CDK2): 26%
IC50 (HepG2 cells; Homo sapiens, HepG2, 72 h): 5 nM
inhibition at 1 µM (CDK7): 99%

Now from value to molecule:

IC50 (MDA-MB-468 cells [1]; Homo sapiens, MDA-MB-468, 72 h): 65 nM
IC50 [2]: 13 nM
Compound: C[C@H](C(=O)Nc1ncc(C(F)(F)F)s1)c1cccc(-c2ccc(NC(=O)/C=C/CN(C)C)nc2)c1 [Example 116, (S,E)-4-(dimethylamino)-N-(5-(3-(1-oxo-1-((5-(trifluoromethyl)thiazol-2-yl)amino)propan-2-yl)phenyl)pyridin-2-yl)but-2-enamide]

IC50 (MDA-MB-468 cells [1]; Homo sapiens, MDA-MB-468, 72 h): 56 nM
IC50 [2]: 15 nM
Compound: C[C@H](C(=O)Nc1ncc(C(F)(F)F)s1)c1cccc(-c2cnc(NC(=O)/C=C/CN3CC[C@H](F)C3)cn2)c1 [Example 117, (E)-4-((S)-3-fluoropyrrolidin-1-yl)-N-(5-(3-((S)-1-oxo-1-((5-(trifluoromethyl)thiazol-2-yl)amino)propan-2-yl)phenyl)pyrazin-2-yl)but-2-enamide]

IC50 (MDA-MB-468 cells [1]; Homo sapiens, MDA-MB-468, 72 h): 44 nM
IC50 [2]: 9 nM
Compound: C[C@H](C(=O)Nc1ncc(C(F)(F)F)s1)c1cccc(-c2cnc(NC(=O)/C=C/CN3CCC(O)C3)cn2)c1 (stereo partly drawn) [Example 119, (E)-4-(3-hydroxypyrrolidin-1-yl)-N-(5-(3-((S)-1-oxo-1-((5-(trifluoromethyl)thiazol-2-yl)amino)propan-2-yl)phenyl)pyrazin-2-yl)but-2-enamide]

IC50 (MDA-MB-468 cells [1]; Homo sapiens, MDA-MB-468, 72 h): 23 nM
IC50 [2]: 7 nM
inhibition at 1 µM (CDK5): 30%
inhibition at 1 µM (CDK2): 20%
IC50 (HepG2 cells; Homo sapiens, HepG2, 72 h): 3 nM
inhibition at 1 µM (CDK7): 99%
Compound: CCc1cnc(NC(=O)[C@@H](C)c2cccc(-c3cnc(NC(=O)/C=C/CN(C)C)c(C#N)c3)c2)s1 [Example 121, (S,E)-N-(3-cyano-5-(3-(1-((5-ethylthiazol-2-yl)amino)-1-oxopropan-2-yl)phenyl)pyridin-2-yl)-4-(dimethylamino)but-2-enamide]

IC50 (MDA-MB-468 cells [1]; Homo sapiens, MDA-MB-468, 72 h): 33 nM
IC50 [2]: 13 nM
Compound: CCc1cnc(NC(=O)[C@@H](C)c2cccc(-c3cnc(NC(=O)/C=C/CN(C)C)c(C)c3)c2)s1 [Example 125]

IC50 (MDA-MB-468 cells [1]; Homo sapiens, MDA-MB-468, 72 h): 18 nM
IC50 [2]: 8 nM
IC50 (HepG2 cells; Homo sapiens, HepG2, 72 h): 3.8 nM
Compound: CCc1cnc(NC(=O)[C@@H](C)c2cccc(-c3cnc(NC(=O)/C=C/CN(C)C)c(F)c3)c2)s1 [Example 130, (S,E)-4-(dimethylamino)-N-(5-(3-(1-((5-ethylthiazol-2-yl)amino)-1-oxopropan-2-yl)phenyl)-3-fluoropyridin-2-yl)but-2-enamide]

Reference: patent US12110299B2, “Thiazole derivatives and pharmaceutically acceptable salts thereof” (YUNGJIN PHARM. CO., LTD., priority 2018, dated 2024)
